Test results as given in ChEMBL document CHEMBL1201862, “PubChem BioAssay data set” (2004).
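These data come from cells grown in 96-well plates and exposed to compound for 48 hours at five concentrations. GI50 = concentration required for 50% inhibition of growth.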 Calls of active or inactive are those of the source. Cut-off read from the data, not from the text of the source: active = GI50 up to about 1.1 µM and inactive = higher. Starred links: 1 amine or outer side, 2 acyl side, 3 side chain; linkers in the order of their positions; H or OH if unused. Non-standard residues stand in square brackets, D forms with d. Residues, ends and D or L forms follow the SMILES beside them. ξ: configuration not given here. X24 = O=C(C(CC(O)CO)O[*:1])[*:2]; Ile(3ξ) = CCC(C)[C@H](N)C(=O)O; NMeV = CN[C@H](C(=O)O)C(C)C; NMeA = CN[C@@H](C)C(=O)O; βAla = NCCC(=O)O

Experiments:
Experiment in all cases: DTP human tumour cell line panel, 48 h
HCC 2998 = system: HCC 2998
HCT-15 = system: HCT-15
KM12 = system: KM12
Malme-3M = system: Malme-3M
NCI-H226 = system: NCI-H226
NCI-H23 = system: NCI-H23
OVCAR-5 = system: OVCAR-5
RXF 393 = system: RXF 393
SK-MEL-28 = system: SK-MEL-28
SK-MEL-2 = system: SK-MEL-2
SK-MEL-5 = system: SK-MEL-5
SN12C = system: SN12C
SNB-19 = system: SNB-19
SW-620 = system: SW-620
U-251 = system: U-251
UACC-257 = system: UACC-257
UO-31 = system: UO-31
A498 = system: A498

Compound | GI50 (HCC 2998) | GI50 (HCT-15) | GI50 (KM12) | GI50 (Malme-3M) | GI50 (NCI-H226) | GI50 (NCI-H23) | GI50 (OVCAR-5) | GI50 (RXF 393) | GI50 (SK-MEL-28) | GI50 (SK-MEL-2) | GI50 (SK-MEL-5) | GI50 (SN12C) | GI50 (SNB-19) | GI50 (SW-620) | GI50 (U-251) | GI50 (UACC-257) | GI50 (UO-31) | GI50 (A498)
C=C1c2ccccc2N(S(=O)(=O)c2ccc(C)cc2)C12CCCCC2 | > 100 µM (inactive) | > 100 µM | 38.5 µM (inactive) | 34.8 µM (inactive) | 53.2 µM (inactive) | 25.3 µM (inactive) | > 100 µM (inactive) | 45.6 µM (inactive) | 45.2 µM (inactive) | 52.6 µM (inactive) | 30.8 µM (inactive) | > 100 µM (inactive) | > 100 µM (inactive) | 59.3 µM (inactive) | 94.6 µM (inactive) | 36 µM (inactive) | > 100 µM (inactive) | –
Cc1cc(Cl)ccc1NC(=O)C1C(=O)C(=O)N(c2ccc(Cl)cc2C)C1=O (centres undefined) | > 100 µM (inactive) | 57.5 µM | – | > 100 µM (inactive) | 49.8 µM (inactive) | 74.5 µM (inactive) | 48.3 µM (inactive) | – | > 100 µM (inactive) | 89.9 µM (inactive) | > 100 µM (inactive) | > 100 µM (inactive) | 21 µM (inactive) | > 100 µM (inactive) | 57.3 µM (inactive) | > 100 µM (inactive) | 75.7 µM (inactive) | > 100 µM (inactive)
CCC(C)[C@@H]1NC(=O)[C@@H]2CCCN2C(=O)C(CC(O)CO)OC(=O)CCNC(=O)[C@H](C)N(C)C(=O)[C@H](C(C)C)N(C)C1=O (some centres undefined) (cyclo([Ile(3ξ)][NMeV][NMeA][βAla][X24]P)) | – | > 100 µM | > 100 µM (inactive) | > 100 µM (inactive) | > 100 µM (inactive) | > 100 µM (inactive) | > 100 µM (inactive) | > 100 µM (inactive) | > 100 µM (inactive) | > 100 µM (inactive) | > 100 µM (inactive) | > 100 µM (inactive) | > 100 µM (inactive) | > 100 µM (inactive) | > 100 µM (inactive) | > 100 µM (inactive) | > 100 µM (inactive) | > 100 µM (inactive)
COc1cc(C)c(C(=O)/C=C/c2cc(OC)c(O)c(OC)c2)cc1O | 16.4 µM (inactive) | – | 15.9 µM (inactive) | 20.1 µM (inactive) | – | 12.2 µM (inactive) | 27.6 µM (inactive) | – | 18.6 µM (inactive) | 18.9 µM (inactive) | 17 µM (inactive) | – | 18 µM (inactive) | 26.4 µM (inactive) | 19.6 µM (inactive) | 31.1 µM (inactive) | 23 µM (inactive) | 31.6 µM (inactive)
N#C/C(=N\c1ccccc1N(C(=O)c1ccccc1)C(=O)c1ccccc1)c1ccccc1 | > 68.4 µM (inactive) | 5.14 µM | 3.62 µM (inactive) | > 100 µM (inactive) | > 69.5 µM (inactive) | > 62.5 µM (inactive) | > 47.4 µM (inactive) | – | > 100 µM (inactive) | 42.1 µM (inactive) | 70.8 µM (inactive) | > 71.8 µM (inactive) | 3.62 µM (inactive) | 6.52 µM (inactive) | 10.3 µM (inactive) | > 100 µM (inactive) | > 55.5 µM (inactive) | > 59.2 µM (inactive)
O=C(O)c1c2c(cc3c(=O)cc(-c4ccccc4)oc13)CCCC2 | > 100 µM (inactive) | > 100 µM | > 100 µM (inactive) | > 100 µM (inactive) | – | > 100 µM (inactive) | > 100 µM (inactive) | – | > 100 µM (inactive) | > 100 µM (inactive) | > 100 µM (inactive) | > 100 µM (inactive) | > 100 µM (inactive) | > 100 µM (inactive) | > 100 µM (inactive) | > 100 µM (inactive) | > 100 µM (inactive) | > 100 µM (inactive)
COc1cc2c3c(c1OC)-c1ccccc1C(C(O)c1ccccc1)C3N(C)CC2 (centres undefined) | 17.7 µM (inactive) | 25.4 µM | 25.8 µM (inactive) | 19.6 µM (inactive) | 31 µM (inactive) | 85.5 µM (inactive) | > 100 µM (inactive) | 12.4 µM (inactive) | 16.4 µM (inactive) | 28.1 µM (inactive) | 14.4 µM (inactive) | 32.6 µM (inactive) | 88.5 µM (inactive) | 34.3 µM (inactive) | 30 µM (inactive) | 20.5 µM (inactive) | 19.1 µM (inactive) | –
O=C(/C=C\c1cccc2ccccc12)c1cccs1 | 15.5 µM (inactive) | 3.18 µM | 4.88 µM (inactive) | 12.5 µM (inactive) | – | 16.7 µM (inactive) | 18.7 µM (inactive) | – | 14.3 µM (inactive) | – | 13.3 µM (inactive) | 16.8 µM (inactive) | 12.6 µM (inactive) | 1.62 µM (inactive) | 4.43 µM (inactive) | 13.2 µM (inactive) | 12.9 µM (inactive) | 15.6 µM (inactive)
